Measurements: article PMC9352307 (Biochemistry, 2022)

How the values were obtained:
[1] = biological target: T1, NADP^+-dependent malic enzyme 1 (ME1) (Homo sapiens, UniProt P48163); experiment: Michaelis–Menten enzyme kinetics; type: biochemical
T1 sequence (P48163 1-572): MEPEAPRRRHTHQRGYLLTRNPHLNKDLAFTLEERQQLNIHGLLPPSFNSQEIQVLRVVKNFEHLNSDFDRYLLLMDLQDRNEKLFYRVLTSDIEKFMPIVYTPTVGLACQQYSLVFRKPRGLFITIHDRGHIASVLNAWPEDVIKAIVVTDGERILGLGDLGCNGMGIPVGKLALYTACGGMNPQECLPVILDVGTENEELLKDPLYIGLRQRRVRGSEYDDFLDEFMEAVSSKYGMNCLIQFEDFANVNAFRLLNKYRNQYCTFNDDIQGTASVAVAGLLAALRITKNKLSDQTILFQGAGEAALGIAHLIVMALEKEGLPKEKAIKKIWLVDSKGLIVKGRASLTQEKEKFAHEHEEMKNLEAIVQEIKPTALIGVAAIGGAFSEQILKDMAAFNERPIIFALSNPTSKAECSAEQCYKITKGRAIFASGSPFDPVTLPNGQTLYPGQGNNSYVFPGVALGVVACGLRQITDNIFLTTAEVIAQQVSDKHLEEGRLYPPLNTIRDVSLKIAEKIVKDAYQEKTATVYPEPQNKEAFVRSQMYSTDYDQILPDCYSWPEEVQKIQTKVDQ

[2] = biological target: T1, NADP^+-dependent malic enzyme 1 (ME1); experiment: X-ray crystal structure; type: biochemical

| IC50 [2] | Compound | Michaelis-Menten enzyme kinetics [1] |
| --- | --- | --- |
|  | O=C(O)CC(O)C(=O)O (stereo not drawn) [malate] | Michaelis–Menten plot of ME1 activity in the presence of AS1134900 vs DL-malate |
|  | NC(=O)c1ccc[n+]([C@@H]2O[C@H](COP(=O)(O)OP(=O)(O)OC[C@H]3O[C@@H](n4cnc5c(N)ncnc54)[C@H](OP(=O)(O)O)[C@@H]3O)[C@@H](O)[C@H]2O)c1 [NADP^+] | enzyme kinetics were examined using various concentrations of malate or NADP^+ |
| 730 nM | CCCc1nc2c(C)ccn(Cc3ccc4nc(-c5ccccc5-c5nnn[nH]5)sc4c3)c-2n1 [AS1134900, 6-[(7-methyl-2-propylimidazo[4,5-b]pyridin-4-yl)methyl]-2-[2-(1H-tetrazol-5-yl)phenyl]-1,3-benzothiazole] |  |
